Results from ChEMBL document CHEMBL1759870, “Identification, structural properties and chelating capacity of miltipolone as a broad-spectrum inhibitor to cancer cells” (Eur J Med Chem, 2011).
Activity calls are given as the source filed them. The calls are words filed in the database; no cut-off is given here.

Legend:
MCF7 [1] = experiment: Antiproliferative activity against human MCF7 cells at 2 uM after 96 hrs by MTT assay in presence of 1 uM of ferrous ion; format: functional, cell-based
Jurkat [2] = experiment: Antiproliferative activity against human Jurkat cells at 2 uM after 96 hrs by MTT assay in presence of 1 uM of ferrous ion; format: functional, cell-based
A-375 [3] = experiment: Antiproliferative activity against human A375 cells at 2 uM after 96 hrs by MTT assay in presence of 1 uM of ferrous ion; format: functional, cell-based
NCI-N87 [4] = experiment: Antiproliferative activity against human NCI-N87 cells at 2 uM after 96 hrs by MTT assay in presence of 1 uM of ferrous ion; format: functional, cell-based
PANC-1 [5] = experiment: Antiproliferative activity against human PANC1 cells at 2 uM after 96 hrs by MTT assay in presence of 1 uM of ferrous ion; format: functional, cell-based
HT-1080 [6] = experiment: Antiproliferative activity against human HT1080 cells at 2 uM after 96 hrs by MTT assay in presence of 1 uM of ferrous ion; format: functional, cell-based
HeLa [7] = experiment: Antiproliferative activity against human HeLa cells at 2 uM after 96 hrs by MTT assay in presence of 1 uM of ferrous ion; format: functional, cell-based
HepG2 [8] = experiment: Antiproliferative activity against human HepG2 cells at 2 uM after 96 hrs by MTT assay in presence of 1 uM of ferrous ion; format: functional, cell-based
A549 [9] = experiment: Antiproliferative activity against human A549 cells at 2 uM after 96 hrs by MTT assay in presence of 1 uM of ferrous ion; format: functional, cell-based
HUVEC = experiment: Antiproliferative activity against human HUVEC cells after 96 hrs by MTT assay; format: cell-based
A549 [10] = experiment: Antiproliferative activity against human A549 cells after 96 hrs by MTT assay; format: functional, cell-based; settings: A549, 96 h
Bel-7402 [11] = experiment: Antiproliferative activity against human Bel7402 cells after 96 hrs by MTT assay; format: functional, cell-based; settings: Bel-7402, 96 h
HepG2 [12] = experiment: Antiproliferative activity against human HepG2 cells after 96 hrs by MTT assay; format: functional, cell-based; settings: HepG2, 96 h
HeLa [13] = experiment: Antiproliferative activity against human HeLa cells after 96 hrs by MTT assay; format: functional, cell-based
MCF7 [14] = experiment: Antiproliferative activity against human MCF7 cells after 96 hrs by MTT assay; format: functional, cell-based; settings: MCF7, 96 h
Jurkat [15] = experiment: Antiproliferative activity against human Jurkat cells after 96 hrs by MTT assay; format: functional, cell-based
HT-1080 [16] = experiment: Antiproliferative activity against human HT1080 cells after 96 hrs by MTT assay; format: functional, cell-based; settings: HT-1080, 96 h
A-375 [17] = experiment: Antiproliferative activity against human A375 cells after 96 hrs by MTT assay; format: functional, cell-based; settings: A-375, 96 h
NCI-N87 [18] = experiment: Antiproliferative activity against human NCI-N87 cells after 96 hrs by MTT assay; format: functional, cell-based; settings: NCI-N87, 96 h
PANC-1 [19] = experiment: Antiproliferative activity against human PANC1 cells after 96 hrs by MTT assay; format: functional, cell-based; settings: PANC-1, 96 h
[20] = Metal chelating activity of the compound assessed as ferrous ion complex formation in doble-distiled water by UV-vis spectrometry; format: functional
[21] = Metal chelating activity of the compound assessed as ferric ion complex formation in doble-distiled water by UV-vis spectrometry; format: functional
[22] = Metal chelating activity of the compound assessed as cobalt complex formation in doble-distiled water by UV-vis spectrometry; format: functional
[23] = Metal chelating activity of the compound assessed as zinc complex formation in doble-distiled water by UV-vis spectrometry; format: functional
[24] = Metal chelating activity of the compound assessed as manganese complex formation in doble-distiled water by UV-vis spectrometry; format: functional
A549 [25] = experiment: Antiproliferative activity against human A549 cells at 2 uM after 96 hrs by MTT assay in presence of ferrous ion; format: functional, cell-based
Bel-7402 [26] = experiment: Antiproliferative activity against human Bel7402 cells at 2 uM after 96 hrs by MTT assay in presence of ferrous ion; format: functional, cell-based
HepG2 [27] = experiment: Antiproliferative activity against human HepG2 cells at 2 uM after 96 hrs by MTT assay in presence of ferrous ion; format: functional, cell-based
HeLa [28] = experiment: Antiproliferative activity against human HeLa cells at 2 uM after 96 hrs by MTT assay in presence of ferrous ion; format: functional, cell-based
MCF7 [29] = experiment: Antiproliferative activity against human MCF7 cells at 2 uM after 96 hrs by MTT assay in presence of ferrous ion; format: functional, cell-based
Jurkat [30] = experiment: Antiproliferative activity against human Jurkat cells at 2 uM after 96 hrs by MTT assay in presence of ferrous ion; format: functional, cell-based
HT-1080 [31] = experiment: Antiproliferative activity against human HT1080 cells at 2 uM after 96 hrs by MTT assay in presence of ferrous ion; format: functional, cell-based
A-375 [32] = experiment: Antiproliferative activity against human A375 cells at 2 uM after 96 hrs by MTT assay in presence of ferrous ion; format: functional, cell-based
NCI-N87 [33] = experiment: Antiproliferative activity against human NCI-N87 cells at 2 uM after 96 hrs by MTT assay in presence of ferrous ion; format: functional, cell-based
PANC-1 [34] = experiment: Antiproliferative activity against human PANC1 cells at 2 uM after 96 hrs by MTT assay in presence of ferrous ion; format: functional, cell-based
A549 [35] = experiment: Antiproliferative activity against human A549 cells at 2 uM after 96 hrs by MTT assay in presence of ferric ion; format: functional, cell-based
Bel-7402 [36] = experiment: Antiproliferative activity against human Bel7402 cells at 2 uM after 96 hrs by MTT assay in presence of ferric ion; format: functional, cell-based
HepG2 [37] = experiment: Antiproliferative activity against human HepG2 cells at 2 uM after 96 hrs by MTT assay in presence of ferric ion; format: functional, cell-based

IC50 (A549 [10]): 1920 nM | IC50 (Bel-7402 [11]): 900 nM | IC50 (HepG2 [12]): 2000 nM | IC50 (HeLa [13]): 1440 nM | IC50 (MCF7 [14]): 2000 nM | IC50 (Jurkat [15]): 1400 nM | IC50 (HT-1080 [16]): 1360 nM | IC50 (A-375 [17]): 3.5 µM | IC50 (PANC-1 [19]): 5.95 µM
SMILES: Cc1cc2c(cc(O)c1=O)[C@@]13CCCC(C)(C)[C@@H]1C[C@@H]2OC3 [MILTIPOLONE]
Activity (MCF7 [1]): inactive | Activity (Jurkat [2]): inactive | Activity (A-375 [3]): inactive | Activity (NCI-N87 [4]): inactive | Activity (PANC-1 [5]): inactive | Activity (HT-1080 [6]): inactive | Activity (HeLa [7]): inactive | Activity (HepG2 [8]): inactive | Activity (A549 [9]): inactive | IC50 (HUVEC): 20 µM | IC50 (NCI-N87 [18]): 1600 nM | Activity [20]: Active | Activity [21]: Active | Activity [22]: Active | Activity [23]: Active | Activity [24]: Active | Activity (A549 [25]): inactive | Activity (Bel-7402 [26]): inactive | Activity (HepG2 [27]): inactive | Activity (HeLa [28]): inactive | Activity (MCF7 [29]): inactive | Activity (Jurkat [30]): inactive | Activity (HT-1080 [31]): inactive | Activity (A-375 [32]): inactive | Activity (NCI-N87 [33]): inactive | Activity (PANC-1 [34]): inactive | Activity (A549 [35]): Active | Activity (Bel-7402 [36]): Active | Activity (HepG2 [37]): Active
